# Data as given in PubChem BioAssay (NCI).
#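 The compound was tested at five concentrations on cells cultured in 96-well plates, with a 48-hour exposure period. The concentration for 50% growth inhibition is given as GI50. The concentration for full growth arrest is given as TGI.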
# Experiments:
# Experiment in all cases: NCI-60 cell line screen, 48 h
# [1] = system: SK-OV-3 ovarian
# [2] = system: K-562 leukemia
# [3] = system: SNB-19 CNS
# [4] = system: EKVX NSCLC
# [5] = system: SF-268 CNS
# [6] = system: UO-31 renal
# [7] = system: SW-620 colon
# [8] = system: M14 melanoma
# [9] = system: NCI-H23 lung
# [10] = system: MDA-MB-435
Structure (SMILES),TGI [1] [µM],TGI [2] [µM],TGI [3] [µM],TGI [4] [µM],TGI [5] [µM],TGI [6] [µM],TGI [7] [µM],TGI [8] [µM],TGI [9] [µM],TGI [10] [µM],GI50 [1] [µM],GI50 [2] [µM],GI50 [3] [µM],GI50 [10] [µM],GI50 [4] [µM],GI50 [5] [µM],GI50 [6] [µM],GI50 [7] [µM],GI50 [9] [µM],GI50 [8] [µM]
CCCCc1c2c(nc3c1CCc1cc4c(nc1-3)-c1nc3c(c(CCCC)c1CC4)CCC/C3=C\c1ccccc1)/C(=C/c1ccccc1)CCC2,> 100,> 100,> 100,> 100,> 100,> 100,> 100,> 100,> 100,–,–,–,–,–,–,–,–,–,–,–
C#CCNC(Cc1cnc[nH]1)C(=O)O (stereo not drawn),> 100,> 100,> 100,> 100,> 100,> 100,> 100,> 100,–,> 100,–,–,–,–,–,–,–,–,–,–
N#Cc1c(NC(=O)c2ccccc2)sc2c1CCC(=O)C2,14.7,> 100,> 100,10.4,38.4,2.24,3.69,–,6.99,3.6,2.33,0.467,3.48,0.594,2.33,2.59,1.05,0.524,0.768,–
Cc1cc2ccccc2n1CC(=O)NCC(C)C,> 100,> 100,> 100,> 100,> 100,> 100,> 100,> 100,> 100,> 100,–,–,–,–,–,–,–,–,–,–
COc1cccc(NC(=O)CSc2nnc(-c3ccc(N=Cc4ccc(Cl)cc4)cc3)o2)c1,> 100,> 100,53.2,> 100,46.3,32.7,37.9,47,41.1,–,–,–,–,–,–,–,–,–,–,–
O=C(c1ccc2ccccc2c1)C1S(=O)(=O)OCCOS1(=O)=O,–,> 100,> 100,> 100,–,> 100,–,> 100,> 100,> 100,–,–,–,–,–,–,–,–,–,–
OC(c1ccc(Cl)cc1)(c1ccc(Cl)cc1)C(O)(c1ccc(Cl)cc1)c1ccc(Cl)cc1,–,> 100,–,> 100,–,> 100,> 100,> 100,–,> 100,–,3.56,–,2.94,3.14,–,2.89,3.24,–,3.23
C=CCC(CNC(=O)OCc1ccccc1)O[Si](C)(C)C(C)(C)C (stereo not drawn),> 100,> 100,> 100,74.9,> 100,63.1,> 100,> 100,> 100,> 100,–,–,–,–,–,–,–,–,–,–
CC(=O)O[C@H]1C#C/C=C\C#CC[C@@H]2C(=O)N(C(=O)OC(C)(C)C)[C@@H]12,> 100,> 100,97,> 100,> 75.2,31.2,> 100,> 100,> 69,> 100,–,–,–,–,–,–,–,–,–,–
Nc1nc(Cl)cc(N=Nc2ccccc2)n1,> 100,> 100,> 100,> 100,> 100,> 100,> 100,> 100,55.5,> 100,–,–,–,–,–,–,–,–,–,–
CC(CCC(=O)O)[C@H]1CCC2[C@H]3C(CC[C@@]21C)[C@@]1(C)CCC(O)C[C@H]1C[C@@H]3O (stereo partly drawn),–,> 100,> 100,> 100,> 100,> 100,> 100,> 100,> 100,> 100,–,–,–,–,–,–,–,–,–,–
CC(=O)NC1C(CO)O[C@@H]2OC(C)(C)O[C@H]12 (stereo partly drawn),–,–,> 100,> 100,> 100,> 100,> 100,> 100,> 100,> 100,–,–,–,–,–,–,–,–,–,–
Cc1ccc(S(=O)(=O)n2cncc2CO)cc1,> 100,> 100,> 100,> 100,> 100,> 100,> 100,> 100,> 100,> 100,–,–,–,–,–,–,–,–,–,–
CCCn1c(C23CC4CC(CC(C4)C2)C3)nc2ccc(Cl)cc2c1=O,> 100,> 100,> 100,95.4,> 100,39.5,> 100,> 100,> 100,> 100,–,–,–,–,–,–,–,–,–,–
CN(CCc1ccc(Cl)c(Cl)c1)[C@H]1CCCC[C@H]1N1CCCC1,> 100,> 100,> 100,> 100,> 100,> 100,> 100,> 100,> 100,> 100,–,–,–,–,–,–,–,–,–,–
c1ccc(CCN2CCCCCC2)nc1,> 100,> 100,> 100,> 100,> 100,> 100,> 100,> 100,> 100,> 100,–,–,–,–,–,–,–,–,–,–
CNC(=O)CCC(NC(C)=O)C(=O)NC(Cc1ccc(NC(=O)CCCCC(C)=O)cc1)C(=O)NC(CCC(=O)NC)C(=O)NC (stereo not drawn),> 100,> 100,> 100,> 100,> 100,> 100,> 100,> 100,> 100,> 100,–,–,–,–,–,–,–,–,–,–
CN(C)CCOC(=O)COc1ccc(Cl)cc1,> 100,> 100,> 100,> 100,> 100,> 100,> 100,> 100,> 100,> 100,–,–,–,–,–,–,–,–,–,–
O=C(c1ccccc1)c1c(C(F)(F)F)n([O-])c2ccccc2[n+]1=O,–,–,3.23,6.04,–,2.27,> 100,–,3.71,–,–,–,–,–,–,–,–,–,–,–
CC(C)(C)N=C1CC(C)(C)c2ccccc2C(=Nc2ccccc2)S1,> 100,> 100,> 100,> 100,> 100,> 100,> 100,> 100,98.6,–,–,–,–,–,–,–,–,–,–,–
COc1cc(C2C3=C(CCC3=O)Oc3cc4c(cc32)OCO4)cc(OC)c1OC (stereo not drawn),> 100,> 100,> 100,> 100,–,> 100,> 100,> 100,> 100,–,–,–,–,–,–,–,–,–,–,–
